Data: patent US20260258121A1, “USES OF POMC-SPECIFIC ANTIBODY AND MARCHF6” (KOREA UNIVERSITY RESEARCH AND BUSINESS FOUNDATION, priority 2023, published 2026)

Columns and labels:
[1] = test system: 4-hydroxynonenal (4HNE); experiment: Immunoblotting of 4-HNE in POMCha-overexpressing N43/5 cells; format: cell-based, mouse; settings: Fer-1 5 μM, 24 h
[2] = test system: POMCha-overexpressing Marchf6-KO N43/5 cells; experiment: Cell viability (CellTiter-Glo) of POMCha-overexpressing Marchf6-KO N43/5 cells; format: cell-based, mouse; settings: 5 μM Fer-1, 24 hours
Description: To understand the functional or mechanistic association between Marchf6-mediated POMC degradation and ferroptosis, lipid ROS levels were compared in N43/5 cells overexpressing POMCha using a lipid peroxidation sensor C11-BODIPY^581/591. Specifically, WT or Marchf6-KO N43/5 cells were transfected with pCH4129 (POMCha) for 48 hours, and the medium was replaced with a culture medium containing 2 μM C11-BODIPY^581/591 (Thermo Fisher Scientific, D3861). The cells were incubated at 37° C. for 30 minutes, and the fluorescent probe-treated cells were trypsinized, transferred to a 15 ml Falcon tube, washed three times with 1 ml of ice-cold PBS, and then transferred to an ice-cold round-bottom polystyrene tube (Corning, 352235). The amount of intracellular lipid ROS in […] was measured using CytoFLEX LX (Beckman Coulter) using fluorescein isothiocyanate (FITC) and analyzed using FlowJo v10.8.1 (BD Bioscience). In addition, cell viability was analyzed using a CellTiter-Glo luminescent 3D cell viability assay kit (Promega, G9241) and a multimode plate reader (TECAN, Spark 10 M). At this time, when the inhibition of cell death was evaluated, WT or Marchf6-KO N43/5 cells expressing pCH60 (empty vector) or pCH4129 (POMCha) (final concentration of […] each) were treated with 5 μM Fer-1, 20 μM Z-VAD-FMK or 40 μM Nec-1, and incubated for 24 hours, and cell viability was analyzed. In addition, the intracellular NADP(H) level was measured using a NADP/NADPH-Glo assay kit (Promega, G9081) and a multimode plate reader (TECAN, Spark 10 M). Further, LDH activity was measured using the Cytotoxicity Detection Kit Plus (LDH) (Sigma, 4744926001).
Through Examples, since Marchf6 mediated the degradation of POMC, it was expected that loss of Marchf6 would make POMC neurons hypersensitive to POMC-induced ferroptosis. Therefore, pCH60 (empty vector), pCH879 (Marchf63f), pCH880 (Marchf6flag^C9A), or pCH4170 (Marchf6flag^P460A) was transfected into WT or Marchf6-KO N43/5 cells, and the degree of ferroptosis induction in POMC neurons was analyzed as in Example 6-1.

In the case of `CCOC(=O)c1ccc(NC2CCCCC2)c(N)c1` [Fer-1, ferrostatin-1, reference compound], the “level of 4-hydroxynonenal (4HNE) increased by overexpression of POMCha, effect of treatment” value [1] is reported as “restored” and the “decreased viability of POMCha-overexpressing Marchf6-KO N43/5 cells, effect of treatment” value [2] is reported as “restored”.
